Where two headings read alike, the source gives them in different places.
Key:
PAMPA‐GIT = format: in vitro ADME; settings: PAMPA-GIT; for Classification: standard drugs used as control; for Fa exp. / Papp: standard drugs used as control (n = 2); for Papp: read-out: Pe experimental
Protocol: (§1) The lipid mixture that impregnates the filter has a different constitution for the permeability tests for the BBB (brain lipid from pig extract in n‐dodecane) and the GIT (L‐α soy phosphatidylcholine in n‐dodecane). The optical density values obtained in the reading at each selected wavelength, for each of the compounds, were analyzed in comparison with the values of several controls within a calibration curve (≥ 7 drugs). In the case of the BBB, these values were used to elaborate an equation and determine the permeability coefficient (Pe), while GIT used absorbed fraction (Fa%).

[1] = PAMPA-GIT, standard drugs; literature value, ref not given; cited from earlier work
PAMPA‐BBB = format: in vitro ADME; settings: PAMPA-BBB, standard drugs used as control
Protocol: as §1

NCI‐H292 (EGFRwt) [2] = assay: Cell viability by sulforhodamine B (SRB) assay, NCI-H292; settings: Homo sapiens, NCI-H292, 72 h, read-out: cytotoxic activity CC50, NCI‐H292 (EGFRwt)
PC‐9 (EGFRL858R) [3] = assay: Apoptosis by flow cytometry (Muse Annexin V & Dead Cell Kit); format: cell-based, human; settings: PC‐9, 72 h, at their CC50
Protocol: (§2) PC‐9 (EGFRL858R) cell line was seeded at 1 × 10^5 cells/well in a 24‐well plate. […] All flow cytometry assays were performed using Guava Muse Cell Analyzer (Cytek Biosciences) following each kit user's guide provided by the manufacturer. Muse Cell Cycle Kit (catalog no. MCH100106) was chosen to evaluate cell cycle arresting. Apoptosis features were evaluated using Muse Annexin V & Dead Cell Kit (catalog no. MCH100105), as well as inactivation of EGFR using Muse EGFR‐RTK Activation Dual Detection Kit (catalog no. MCH200102). Statistical analysis was performed using one‐way ANOVA on data collected in duplicate from at least two independent experiments (n ≥ 2), employing GraphPad Prism software (version 8.0).

EGFR in PC‐9 (EGFRL858R) = assay: EGFR activation by flow cytometry (Muse EGFR‐RTK Activation Dual Detection Kit); format: cell-based, human
Protocol: as §2

PC‐9 (EGFRL858R) [4] = assay: Cell viability by MTT assay, PC-9; settings: Homo sapiens; for IC50: read-out: cytotoxic activity, PC-9 (EGFRL858R)
NCI‐H292 (EGFRwt) [5] = assay: Cell viability by MTT assay, NCI-H292; settings: Homo sapiens
[6] = test system: NCI‐H1975 (EGFRL858R/T790M); assay: Cell viability by MTT assay, NCI-H1975; settings: Homo sapiens; for IC50: read-out: cytotoxic activity, NCI-H1975 (EGFRL858R/T790M)
PC‐9 (EGFRL858R) [7] = assay: Cell viability by sulforhodamine B (SRB) assay, PC-9; settings: Homo sapiens, 72 h, read-out: cytotoxic activity CC50, PC‐9 (EGFRL858R)

Row | SMILES | Fa exp. (PAMPA‐GIT) [%] | Papp (PAMPA‐GIT) [×10⁻⁶ cm/s] | Classification (PAMPA‐GIT) | Fa lit. [1] [%] | Pe literature [1] | further results
1 | O=C(O)c1cc(/N=N/c2ccc(S(=O)(=O)Nc3ccccn3)cc2)ccc1O [Sulfasalazine] | – | – | – | 42 | 0.30 10^-6 cm s^-1 | –
2 | Cn1c(=O)c2c(ncn2C)n(C)c1=O [Caffeine, reference compound] | – | – | – | – | – | Classification (PAMPA‐BBB): CNS -
3 | C=CC(=O)Nc1cc(Nc2nccc(-c3cn(C)c4ccccc34)n2)c(OC)cc1N(C)CCN(C)C [Osimertinib, osimertinib, reference compound] | – | – | – | – | – | CC50 (NCI‐H292 (EGFRwt) [2]): 6860 nM; increase in the population of cells undergoing apoptosis (PC‐9 (EGFRL858R) [3]): approximately 10%; inhibition of phosphorylation and activation of EGFR (EGFR in PC‐9 (EGFRL858R)): inhibited phosphorylation; IC50 (PC‐9 (EGFRL858R) [4]; 24 h): 8320 nM; IC50 (PC‐9 (EGFRL858R) [4]; 48 h): 170 nM; CC50 (PC‐9 (EGFRL858R) [4]; 72 h, read-out: cytotoxic activity CC50, PC‐9 (EGFRL858R)): 50 nM; IC50 (NCI‐H292 (EGFRwt) [5]; NCI-H292, 48 h, read-out: cytotoxic activity, NCI-H292 (EGFRw.t.)): 6810 nM; CC50 (NCI‐H292 (EGFRwt) [5]; NCI-H292, 72 h, read-out: cytotoxic activity CC50, NCI‐H292 (EGFRwt)): 6300 nM; IC50 ([6]; NCI-H1975, 24 h): […]; IC50 ([6]; NCI-H1975, 48 h): […]; CC50 ([6]; NCI-H1975, 72 h, read-out: cytotoxic activity CC50, NCI‐H1975 (EGFRL858R/T790M)): […]; CC50 (PC‐9 (EGFRL858R) [7]): 70 nM

Second part, led by results:

Row | Fa exp. (PAMPA‐GIT) [%] | Papp (PAMPA‐GIT) [×10⁻⁶ cm/s] | SMILES | Classification (PAMPA‐GIT) | Fa lit. [1] [%] | Pe literature [1] | further results
4 | 1.37 | 0.67 | CO/N=C(\C(=O)N[C@@H]1C(=O)N2C(C(=O)O)=C(CSc3nc(=O)c(=O)[nH]n3C)CS[C@H]12)c1csc(N)n1 [Ceftriaxone] | Low (low permeability (0%–29%)) | 1 | 0.10 10^-6 cm s^-1 | –
5 | 2.26 | – | CC(C)NCC(O)COc1ccc(CC(N)=O)cc1 (stereo not drawn) [Atenolol] | – | 5.2 | – | –
6 | 99.31 | 13.1 | O=C(O)Cc1ccccc1Nc1c(Cl)cccc1Cl [Diclofenac] | High (high intestinal permeability (70%–100%)) | 100 | 12.50 10^-6 cm s^-1 | –
